What was measured:
Histamine, H3 = Histamine, H3 (Homo sapiens, UniProt Q9Y5N1); test: biochemical; conditions: read-out: percentage inhibition of specific binding
Angiotensin II, AT2 = Angiotensin II, AT2 (Homo sapiens, UniProt P50052); test: Table 12 panel: Angiotensin II, AT2; conditions: 1.0E−6, average N=2, read-out: percentage inhibition of specific binding
Source text: The percentage inhibition (average; N=2) for these receptors is shown below in Table 12.
Values in Table 12 are expressed as percentage inhibition of specific binding, and these values represent the average of replicate tubes at each of the concentrations tested.

Crl: CD(SD)IGS BR rats = test: Acute rat study (toxicity and MTD, oral gavage, 5 days); format: in vivo
Protocol: The purpose of this study was to evaluate the toxicity and maximum tolerated dose (MTD) of the test articles when given via oral gavage to rats. Male Crl: CD®(SD)IGS BR rats (3/group) were assigned to 5 groups. At initiation of dosing, animals were approximately 7 weeks old with body weights ranging from 172 to 206 g. Each group received either 50, 100, 150, 200, or 250 mg/kg of HY2901 once daily for 5 days. All surviving animals were sacrificed on Day 6. Assessment of toxicity was based on mortality, clinical observations, and body weight data.

[1] = Plasma pharmacokinetics in dogs; format: in vivo; conditions: dog, 3 mg/kg
Source text: The following pharmacokinetic parameters are computed from the individual plasma concentrations of the modified antihistamine compound using a noncompartmental approach and appropriate validated pharmacokinetic software (e.g., WinNonlin Professional). Concentration values reported as BLQ are set to zero. If concentration data are available, interim calculations are done (non-QC.d data) between periods if possible.
Dose proportionality following study medication is explored by analyzing natural log-transformed pharmacokinetic variables AUC(0-t), AUC(0-inf), and Cmax with a linear model including the natural log-transformed dose as covariates. […] The following parameters were estimated: • Cmax Maximum plasma concentration. • Tmax Time to maximum concentration. • Cmax and Tmax were reported directly from the concentration-time data. • AUC0-T Area under the plasma concentration-time curve from time […] to the last time point with measurable concentrations, estimated bylinear trapezoidal rule. • AUC0-00 Area under the plasma concentration-time curve extrapolated to infinity, calculated using the formula: AUC0-00=AUC0-1+C0/λ0 • Where Ct is the last measurable concentration in plasma and λz is the terminal phase elimination rate constant estimated using log-linear regression during the terminal elimination phase. […]

human hepatocytes = test: In vitro metabolism in human (cryopreserved) hepatocytes; format: in vitro ADME; conditions: human hepatocyte cultures
Protocol: Metabolism of test articles in monkey and human cryopreserved hepatocytes is assayed as follows:
Sample is diluted with DMSO, to prepare 100 μM and 10 μM stocks. 0.1% formic acid in acetonitrile is prepared by the addition of 1 mL formic acid per 1 L acetonitrile (store RT for 3 months). 10 minute, 60 and 120 minute 96 well quenching plates are prepared with 150 μL acetonitrile+0.1% formic acid in each well. Store on ice or refrigerated.
Next, hepatocytes are thawed and 100 μL of cell suspension is placed into a microfuge tube with 100 μL 0.4% Trypan Blue solution and gently mix by inversion. A small amount of the stained cell suspension (approximately 15 μL) is placed into a clean hemacytometer with a coverslip. The hemacytometer is placed onto the stage of the microscope and the focus and power are adjusted until a single counting square fills the field. The number of cells in the four outside corner subdivided squares of the hemacytometer are counted. Viable cells are opalescent, round, and pale with a darker outline. Non-viable cells are dark, opaque blue.
198 μL of hepatocytes are transferred to relevant wells on dosing plate.
Plates are preincubated for at least 15 min. […]
Cytochrome P450 inhibition was studied with HY2901 in vitro. […] In addition, the in vitro rate of metabolism in rat, dog, monkey, and human hepatocyte cultures was determined for HY2901.

[2] = Acute dog study (toxicity and MTD, escalating oral doses); format: in vivo; conditions: male, Beagle, in vivo; dog, oral gavage
Beagles = test: as above; format: in vivo
hERG = hERG (Homo sapiens, UniProt Q12809); conditions: human, 10 µM, pH 7.4
[3] = 50 to 250 mg/kg once daily for 5 days

Chain of hERG (Q12809 whole entry): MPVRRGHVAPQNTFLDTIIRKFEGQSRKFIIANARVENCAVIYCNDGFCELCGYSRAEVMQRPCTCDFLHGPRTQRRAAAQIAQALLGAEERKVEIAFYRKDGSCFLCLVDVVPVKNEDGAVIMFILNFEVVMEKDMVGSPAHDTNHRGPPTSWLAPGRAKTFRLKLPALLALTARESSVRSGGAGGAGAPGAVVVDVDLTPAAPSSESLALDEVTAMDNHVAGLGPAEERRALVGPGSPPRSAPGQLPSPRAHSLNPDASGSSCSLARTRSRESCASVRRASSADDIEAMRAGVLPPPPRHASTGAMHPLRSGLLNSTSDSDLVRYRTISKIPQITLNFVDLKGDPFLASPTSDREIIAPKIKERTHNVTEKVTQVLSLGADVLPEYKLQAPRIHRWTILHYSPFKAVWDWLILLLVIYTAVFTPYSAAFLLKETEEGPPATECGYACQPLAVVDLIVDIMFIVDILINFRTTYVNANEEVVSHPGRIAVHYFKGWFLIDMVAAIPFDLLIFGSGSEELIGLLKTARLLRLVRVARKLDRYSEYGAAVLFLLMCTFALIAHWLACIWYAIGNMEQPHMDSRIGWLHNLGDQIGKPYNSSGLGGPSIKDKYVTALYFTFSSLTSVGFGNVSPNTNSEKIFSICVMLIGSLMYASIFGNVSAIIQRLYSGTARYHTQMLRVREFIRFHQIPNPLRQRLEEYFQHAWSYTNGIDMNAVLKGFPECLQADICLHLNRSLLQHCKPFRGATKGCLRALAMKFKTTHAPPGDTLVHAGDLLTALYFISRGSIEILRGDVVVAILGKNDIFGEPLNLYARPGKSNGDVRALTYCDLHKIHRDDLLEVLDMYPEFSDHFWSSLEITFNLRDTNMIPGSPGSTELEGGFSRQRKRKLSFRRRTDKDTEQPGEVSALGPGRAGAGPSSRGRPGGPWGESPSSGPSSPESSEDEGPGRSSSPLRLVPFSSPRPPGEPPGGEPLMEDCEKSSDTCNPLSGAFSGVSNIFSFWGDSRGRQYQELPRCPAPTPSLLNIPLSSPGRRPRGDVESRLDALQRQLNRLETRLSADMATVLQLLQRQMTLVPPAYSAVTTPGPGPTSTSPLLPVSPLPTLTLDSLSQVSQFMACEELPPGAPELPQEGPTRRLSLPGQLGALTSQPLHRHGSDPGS
Chain of Histamine, H3 (Q9Y5N1 whole entry): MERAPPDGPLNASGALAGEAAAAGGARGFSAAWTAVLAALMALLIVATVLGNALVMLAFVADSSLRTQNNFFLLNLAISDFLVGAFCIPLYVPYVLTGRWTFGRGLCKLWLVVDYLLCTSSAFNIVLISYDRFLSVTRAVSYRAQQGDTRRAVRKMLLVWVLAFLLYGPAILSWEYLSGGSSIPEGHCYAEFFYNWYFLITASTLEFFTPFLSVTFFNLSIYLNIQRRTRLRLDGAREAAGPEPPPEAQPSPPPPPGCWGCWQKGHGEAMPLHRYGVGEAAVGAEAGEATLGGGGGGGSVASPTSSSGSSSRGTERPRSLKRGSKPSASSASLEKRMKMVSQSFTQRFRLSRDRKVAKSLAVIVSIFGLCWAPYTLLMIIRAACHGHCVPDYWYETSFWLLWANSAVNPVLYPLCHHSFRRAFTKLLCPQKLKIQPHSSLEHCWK
Chain of Angiotensin II, AT2 (P50052 whole entry): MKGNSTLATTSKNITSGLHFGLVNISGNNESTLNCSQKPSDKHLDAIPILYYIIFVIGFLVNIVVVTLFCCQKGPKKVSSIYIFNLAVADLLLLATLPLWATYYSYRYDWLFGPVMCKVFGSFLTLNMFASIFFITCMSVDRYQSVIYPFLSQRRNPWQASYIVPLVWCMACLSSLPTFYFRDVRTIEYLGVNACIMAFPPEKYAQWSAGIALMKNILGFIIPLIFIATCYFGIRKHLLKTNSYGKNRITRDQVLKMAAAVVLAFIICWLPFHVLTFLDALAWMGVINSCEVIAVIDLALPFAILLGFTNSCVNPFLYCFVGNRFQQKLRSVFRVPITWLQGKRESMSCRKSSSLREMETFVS

SMILES	inhibition at 1 µM (Histamine, H3)	inhibition at 1 µM (Angiotensin II, AT2)	ataxia (Crl: CD(SD)IGS BR rats; [3])	hypoactivity / apparent sleep (Crl: CD(SD)IGS BR rats; [3])	Day 6 body weights (Crl: CD(SD)IGS BR rats; two 250 mg/kg rats, relative to other rats)	half-life [1]	Tmax ([1]; after oral administration)	in vitro metabolism (human hepatocytes)	MTD at 5 days [2]	clinical signs of toxicity (Beagles; 25 mg/kg oral gavage)	blood pressure (Beagles; 40 mg/kg)	heart rates (Beagles; 40 mg/kg)	clinical signs of toxicity (Beagles; 40 mg/kg on Day 5)	clinical signs of toxicity (Beagles; 50 mg/kg oral gavage)	clinical signs of toxicity (Beagles; 75 mg/kg oral gavage)	body weight (Beagles; escalating doses 25-75 mg/kg, 40 mg/kg Day 5)	hERG at micromolar (% blocking of the hERG channel) (hERG)
CC(CC(=O)O)N1CCC(=C2c3ccc(F)cc3COc3ccccc32)CC1 (centres unmarked) [Compound 37]	5.11%	1.51%															
CC(C)(CN1CCC(=C2c3ccc(F)cc3COc3ccccc32)CC1)C(=O)O [Compound 49a]			dose-response relationship was observed in the incidence and duration of ataxia	Hypoactivity was observed in all rats	slightly decreased	4.2 h	0.5 h	little metabolism was observed	75 mg/kg	No clinical signs of toxicity	No significant changes	unaffected	body tremors, mild to moderate ataxia, excessive salivation and hypoactivity	Body tremors, mild to severe ataxia, and hypoactivity	Tremors (entire body, hind limbs, and/or head), mild to moderate ataxia, hypoactivity	minimal effect on body weight	10.9 @ 10%
